Source: patent US5250679A, “Nonpeptidyl platelet aggregation inhibitors having specificity for the GPIIb III receptor” (Genentech, Inc., priority 1992, dated 1993)
Where a name gives a salt, the structure may show the parent alone. Read-outs that look alike come from different tables or passages of the source.

Experiments:
[1] = target: T1, GP IIb IIIa (Homo sapiens, UniProt P05106+P08514); assay: Fibrinogen-GP IIb IIIa Receptor ELISA Binding Assay (Fg/IIbIIIa)
T1 construct: from tissue; host or cells: outdated human platelets
In short: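 Purified human platelet GP IIb IIIa binding to immobilised purified fibrinogen was run with compound at room temperature for 1 h. IC50 values were determined.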

[2] = target: T2, Human Vitronectin receptor (av b3) (Homo sapiens, UniProt P05106+P06756); assay: Human Vitronectin-Vitronectin Receptor (av b3) ELISA Assay (Vn/VnR); format: binding; details: Example 30, G # table
T2 construct: is purified from human placenta; from tissue; host or cells: human placenta
From the text: Human vitronectin (Vn) is isolated from human plasma and purified by affinity chromatography by the method of Yatohgo et. al., (Cell Structure and Function 13: 281-292 [1988]).
Human vitronection receptor (VnR) is purified from human placenta by the method of Pytela et al., (Methods Enzymol., 144: 475 [1987]). Alternatively the av b3 receptor can be purified from some cell lines (e.g., human embryonic kidney 293 cells) transfected with DNA sequences for both the av and b3 subunits. The subunits are purified by employing octylglucoside extraction followed by Con-A, Heparin-Sepharose, and S-300 Chromatography.
This mouse Mab is specific for the b3 subunit of the vitronectin receptor.
Rabbit Fab 2 anti-mouse Fc fragment horse radish peroxidase conjugate (anti-MuFc HRP) is obtained from PelFreeze (cat. no. 715305-1).
Maxisorp microtiter plates are coated with 2 mg/ml human vitronectin dissolved in PBS (50 ml/well) and stored overnight at 4° C. The plates are washed two times with PBS-0.05% Tween-20 (wash buffer) and blocked by incubating with about 150 ml/well of assay buffer (1%, BSA [RIA grade or better] in 50 mM Tris-HCl, 100 mM NaCl, 1 mM MgCl2, CaCl2, MnCl2 pH 7.4) for 60 minutes. […] The blocked plates are emptied and 25 ml/well of inhibitor or standard solution is added to each well. Twenty-five ml of a 30 mg/ml solution of purified av b3 in assay buffer is pipetted into the coated plate. The final concentration of receptor in the assay well is about 15 mg/ml. The plate is incubated on a shaker for 60 minutes. Meanwhile, for each microtite plate, 6 ml buffer solution containing 1.5 mg/ml of mouse monoclonal antibody specific for b3 is prepared. To this solution is added ml of the secondary antibody, which is anti-mouse-Fc-HRP antibody conjugate. For example, for one plate, prepare 6 ml of a 1.5 mg/ml mouse Mab solution to which is added 1 ml of anti-mouse-Fc-HRP antibody stock, (this represents a 1:6000 dilution of the antibody-HRP conjugate). This mixture is allowed to incubate during the receptor-inhibitor incubation. The assay plates are washed 4 times with PBS-Tween and 50 ml/well of the antibody mixture is then pipetted into the plate for a 60 minute incubation. The plate is washed 4 times and the color reaction is developed with 50 ml/well of 0.67 mg/ml o-phenyldiamine in PBS containing 0.012% H2 O2. Alternatively, 16 mM citric acid, 50 mM Na2 PO4 at pH 5.0 can be used as a substrate buffer. The reaction is stopped with 50 ml/well 1 M H2 SO4. The plates are read at 492-405 nm and the data analyzed by four-parameter fit.

[3] = system: human platelet rich plasma (PRP); assay: In Vitro Human Platelet Aggregation Assay (PA); format: cell-based
Experimental: In addition to the GPIIb IIIa ELISA assay, platelet aggregation assays may be performed in human platelet rich plasma (PRP). […] The blood is centrifuged at 160×g for 10 min at 22° C. and then allowed to stand for 5 min after which the PRP is decanted. Platelet poor plasma (PPP) is isolated from the remaining blood after centrifugation at 2000×g for 25 min. The platelet count of the PRP is adjusted to ca. 300,000 per microliter with PPP.
A 225 mL aliquot of PRP plus 25 mL of either a dilution of the test sample or a control (PBS) is incubated for 5 min in a Chrono-log Whole Blood Aggregometer at 25° C. An aggregating agent (collagen, 1 mg/ml; U46619, 100 ng/ml; or ADP, 8 mM) is added and the platelet aggregation recorded.
Platelet aggregation assays are performed in human platelet rich plasma (PRP). […] The blood is centrifuged at 160×g for 10 minutes at 22° C. and allowed to stand for 5 minutes after which the PRP is decanted. Platelet poor plasma (PPP) is isolated from the remaining blood after centrifugation at 2000×g for 25 minutes. The platelet count of the PRP is diluted to about 300,000 platelets per microliter with PPP.
A 225 ml aliquot of PRP plus 25 ml of either a dilution of the test inhibitor sample or a control (PBS) is incubated for 5 minutes in a Chrono-log Whole Blood Aggregometer at 25° C. An aggregating agent (collagen, 1 mg/ml; U46619, 100 ng/ml; or ADP, 17 mM) is added and the transmission is recorded.

[4] = Example 29, Cmpd # 1-105, read-out: IC50 Fg/IIbI
[5] = Example 30, G # table, read-out: IC50 (μM) Fg/IIbIIIa
[6] = Homo sapiens, Platelet, citrate, read-out: PA IC50 (μM) (citrate)
[7] = Homo sapiens, Platelet, heparin, read-out: PA IC50 (μM) (heparin)
[8] = Examples 29 and 30, Cmpd # tables, read-out: IC50 (μM) Fg/IIbIIIa

T1 sequence (P08514 32-887 limits assumed): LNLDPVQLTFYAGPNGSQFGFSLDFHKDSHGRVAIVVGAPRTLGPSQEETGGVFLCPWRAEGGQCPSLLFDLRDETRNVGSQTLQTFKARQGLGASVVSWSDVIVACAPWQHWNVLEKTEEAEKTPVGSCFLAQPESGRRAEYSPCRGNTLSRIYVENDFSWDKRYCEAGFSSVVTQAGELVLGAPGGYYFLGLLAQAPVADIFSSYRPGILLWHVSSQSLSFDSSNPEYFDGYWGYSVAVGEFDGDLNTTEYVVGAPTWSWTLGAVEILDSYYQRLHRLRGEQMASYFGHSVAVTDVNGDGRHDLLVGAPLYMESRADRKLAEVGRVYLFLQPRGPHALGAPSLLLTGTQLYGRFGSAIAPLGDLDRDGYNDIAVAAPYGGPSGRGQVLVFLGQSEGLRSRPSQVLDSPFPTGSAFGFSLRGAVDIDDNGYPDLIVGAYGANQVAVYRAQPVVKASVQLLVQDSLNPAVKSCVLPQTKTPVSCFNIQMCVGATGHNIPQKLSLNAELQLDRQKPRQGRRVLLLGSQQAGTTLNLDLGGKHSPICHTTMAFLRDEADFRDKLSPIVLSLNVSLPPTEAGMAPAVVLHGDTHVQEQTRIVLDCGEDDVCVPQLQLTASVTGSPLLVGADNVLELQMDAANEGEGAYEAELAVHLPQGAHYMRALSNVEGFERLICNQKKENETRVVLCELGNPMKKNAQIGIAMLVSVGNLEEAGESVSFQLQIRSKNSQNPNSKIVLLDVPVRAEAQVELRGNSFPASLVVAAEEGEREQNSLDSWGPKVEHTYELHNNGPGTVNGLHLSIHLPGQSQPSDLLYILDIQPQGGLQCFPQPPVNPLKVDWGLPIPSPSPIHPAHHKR
T1 sequence (P08514 891-1039 partner limits assumed): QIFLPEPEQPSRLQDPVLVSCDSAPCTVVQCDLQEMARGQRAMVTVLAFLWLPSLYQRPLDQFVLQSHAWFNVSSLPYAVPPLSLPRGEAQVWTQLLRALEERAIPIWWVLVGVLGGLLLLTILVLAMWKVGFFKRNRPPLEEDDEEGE
T1 sequence (P05106 27-788): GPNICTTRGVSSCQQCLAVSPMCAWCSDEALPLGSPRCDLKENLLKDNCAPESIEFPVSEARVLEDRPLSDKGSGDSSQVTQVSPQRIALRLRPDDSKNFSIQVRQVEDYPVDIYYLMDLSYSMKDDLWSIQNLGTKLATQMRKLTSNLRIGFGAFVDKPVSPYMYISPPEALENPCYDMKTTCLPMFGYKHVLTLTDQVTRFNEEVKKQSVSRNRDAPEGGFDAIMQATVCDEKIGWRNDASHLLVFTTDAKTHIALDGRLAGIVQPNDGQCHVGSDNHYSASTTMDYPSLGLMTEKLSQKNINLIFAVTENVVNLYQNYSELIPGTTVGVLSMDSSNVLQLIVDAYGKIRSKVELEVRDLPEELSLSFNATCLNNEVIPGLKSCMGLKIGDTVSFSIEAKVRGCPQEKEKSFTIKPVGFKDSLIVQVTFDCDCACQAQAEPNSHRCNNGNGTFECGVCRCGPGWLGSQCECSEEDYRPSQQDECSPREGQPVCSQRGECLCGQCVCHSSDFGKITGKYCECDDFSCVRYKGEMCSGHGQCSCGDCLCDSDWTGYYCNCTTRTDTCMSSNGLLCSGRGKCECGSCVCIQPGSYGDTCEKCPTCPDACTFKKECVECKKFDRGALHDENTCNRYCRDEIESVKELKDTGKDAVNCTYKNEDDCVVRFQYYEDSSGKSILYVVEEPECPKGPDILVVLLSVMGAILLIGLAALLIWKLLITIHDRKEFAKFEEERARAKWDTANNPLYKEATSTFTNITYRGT
T2 sequence (P06756 31-889 limits assumed): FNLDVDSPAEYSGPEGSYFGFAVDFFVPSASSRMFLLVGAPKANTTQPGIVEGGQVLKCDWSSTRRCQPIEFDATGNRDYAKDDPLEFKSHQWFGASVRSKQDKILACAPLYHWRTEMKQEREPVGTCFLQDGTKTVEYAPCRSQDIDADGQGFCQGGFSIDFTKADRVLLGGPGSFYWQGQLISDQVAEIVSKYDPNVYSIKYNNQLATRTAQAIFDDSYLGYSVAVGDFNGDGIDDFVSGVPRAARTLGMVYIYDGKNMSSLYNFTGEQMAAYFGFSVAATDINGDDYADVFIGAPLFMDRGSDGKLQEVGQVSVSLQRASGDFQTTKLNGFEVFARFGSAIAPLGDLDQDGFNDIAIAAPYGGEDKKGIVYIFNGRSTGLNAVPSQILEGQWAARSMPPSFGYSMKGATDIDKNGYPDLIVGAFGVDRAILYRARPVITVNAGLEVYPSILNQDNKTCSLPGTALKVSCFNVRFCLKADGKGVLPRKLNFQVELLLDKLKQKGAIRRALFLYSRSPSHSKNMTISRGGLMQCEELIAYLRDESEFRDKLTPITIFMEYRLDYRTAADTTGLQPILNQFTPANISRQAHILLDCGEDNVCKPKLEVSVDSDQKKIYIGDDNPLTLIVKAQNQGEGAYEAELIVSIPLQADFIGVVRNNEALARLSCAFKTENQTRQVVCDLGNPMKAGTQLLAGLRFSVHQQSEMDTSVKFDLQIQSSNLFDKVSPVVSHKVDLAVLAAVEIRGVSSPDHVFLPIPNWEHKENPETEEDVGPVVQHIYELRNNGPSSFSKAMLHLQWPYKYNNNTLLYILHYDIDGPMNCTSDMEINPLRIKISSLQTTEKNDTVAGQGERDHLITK
T2 sequence (P06756 891-1048 partner limits assumed): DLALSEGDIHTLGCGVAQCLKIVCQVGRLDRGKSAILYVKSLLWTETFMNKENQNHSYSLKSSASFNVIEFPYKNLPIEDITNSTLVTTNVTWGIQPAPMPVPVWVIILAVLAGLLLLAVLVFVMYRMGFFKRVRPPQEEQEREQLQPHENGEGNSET
T2 sequence (P05106 27-788): as the sequence (P05106 27-788) above

Structure (SMILES): NCCCCCCc1ccc2c(c1)C(=O)N(CCC(=O)O)CC(=O)N2C(c1ccccc1)c1ccccc1 [Cmpd 72, 1-(diphenylmethyl)-4-(2-carboxyethyl)-7-(6-aminohexyl)-3,4-dihydro-1H-1,4-benzodiazepine-2,5-dione trifluoroacetate]
- IC50 [1, 4]: 0.022 µM
- IC50 [1, 5]: 0.022 µM
- IC50 [2]: > 10 µM
- IC50 [3, 6]: 0.46 µM
- IC50 [3, 7]: 1.1 µM

Structure (SMILES): N=C(N)NCCCCC#Cc1ccc2c(c1)C(=O)N(CCC(=O)O)CC(=O)N2Cc1cccc([N+](=O)[O-])c1 [Cmpd 56, 1-(3-nitrobenzyl)-4-(2-carboxyethyl)-7-(6-guanidino-1-hexynyl)-3,4-dihydro-1H-1,4-benzodiazepine-2,5-dione trifluroacetate]
- IC50 [1, 4]: 0.006 µM
- IC50 [1, 5]: 0.006 µM
- IC50 [2]: > 10 µM
- IC50 [3, 7]: 15 µM

Structure (SMILES): CN1C(=O)CN(CCC(=O)O)C(=O)c2cc(C#CCCCNC(=N)N)ccc21 [Cmpd 34, 1-methyl-4-(2-carboxyethyl)-7-(5-guanidino-1-pentynyl)-3,4-dihydro-1H-1,4-benzodiazepine-2,5-dione trifluroacetate]
- IC50 [1, 4]: 0.0036 µM
- IC50 [1, 5]: 0.0036 µM
- IC50 [2]: > 10 µM
- IC50 [3, 6]: 3.1 µM
- IC50 [3, 7]: 7.5 µM

Structure (SMILES): NCCCCCCCc1ccc2c(c1)C(=O)N(CCC(=O)O)CC(=O)N2Cc1ccc(Cl)cc1 [Cmpd 66]
- IC50 [1, 4]: 0.026 µM
- IC50 [1, 5]: 0.026 µM
- IC50 [2]: > 10 µM
- IC50 [3, 6]: 3.88 µM

Structure (SMILES): NCCCCC#Cc1ccc2c(c1)C(=O)N(CCC(=O)O)CC(=O)N2Cc1ccc(Cl)cc1 [Cmpd 60]
- IC50 [1, 4]: 0.014 µM
- IC50 [1, 5]: 0.014 µM
- IC50 [2]: > 10 µM
- IC50 [3, 6]: 2.12 µM

Structure (SMILES): NCCCCCCc1ccc2c(c1)C(=O)N(CCC(=O)O)CC(=O)N2Cc1ccc(Cl)cc1 [Cmpd 64, 1-(4-chlorophenyl)methyl-4-(2-carboxyethyl)-7-(6-aminohexyl)-3,4-dihydro-1H-1,4-benzodiazapine-2,5-dione]
- IC50 [1, 4]: 0.014 µM
- IC50 [1, 5]: 0.014 µM
- IC50 [2]: > 10 µM
- IC50 [3, 6]: 1.2 µM
- IC50 [3, 7]: 4.76 µM

Structure (SMILES): N=C(N)NCCCC#Cc1ccc2c(c1)C(=O)N(CCC(=O)O)CC(=O)N2Cc1cccc(NC(=O)CNC(=N)N)c1 [Cmpd 107]
- IC50 [1, 5]: 0.018 µM
- IC50 [1, 8]: 0.018 µM
- IC50 [2]: > 10 µM
- IC50 [3, 6]: 0.61 µM
- IC50 [3, 7]: 0.89 µM

Structure (SMILES): N=C(N)NCCCCCc1ccc2c(c1)C(=O)N(CCC(=O)O)CC(=O)N2Cc1ccc(Cl)cc1 [Cmpd 63]
- IC50 [1, 4]: 0.011 µM
- IC50 [1, 5]: 0.011 µM
- IC50 [2]: > 10 µM
- IC50 [3, 6]: 2.55 µM

Structure (SMILES): NCCCCC#Cc1ccc2c(c1)C(=O)N(CCC(=O)O)CC(=O)N2Cc1cccc([N+](=O)[O-])c1 [Cmpd 55, 1-(3-nitrobenzyl)-4-(2-carboxyethyl)-7-(6-amino-1-hexynyl)-3,4-dihydro-1H-1,4-benzodiazepine-2,5-dione trifuroacetate]
- IC50 [1, 4]: 0.008 µM
- IC50 [1, 5]: 0.008 µM
- IC50 [2]: > 10 µM
- IC50 [3, 7]: 2.2 µM

Structure (SMILES): N=C(N)NCCCCCc1ccc2c(c1)C(=O)N(CCC(=O)O)CC(=O)N2C(c1ccccc1)c1ccccc1 [Cmpd 69, 1-(diphenylmethyl)-4-(2-carboxyethyl)-7-(5-guanidinopentyl)-3,4-dihydro-1H-1,4-benxodiazepine-2,5-dione trifluoroacetate]
- IC50 [1, 4]: 0.082 µM
- IC50 [1, 5]: 0.082 µM
- IC50 [2]: > 10 µM
- IC50 [3, 6]: 2.09 µM
- IC50 [3, 7]: 3.9 µM

Structure (SMILES): N=C(N)NCCCc1ccc2c(c1)C(=O)N(CCC(=O)O)CC(=O)N2 [Cmpd 2]
- IC50 [1, 4]: 0.714 µM
- IC50 [1, 5]: 0.714 µM
- IC50 [2]: > 10 µM
- IC50 [3, 6]: > 5 µM

Structure (SMILES): NCCCCCCc1ccc2c(c1)C(=O)N(CCC(=O)O)CC(=O)N2Cc1cccc(NC(=O)CN)c1 [Cmpd 108]
- IC50 [1, 5]: 0.012 µM
- IC50 [1, 8]: 0.012 µM
- IC50 [2]: > 10 µM
- IC50 [3, 6]: 0.55 µM
- IC50 [3, 7]: 1.09 µM

Structure (SMILES): CN1C(=O)CN(CCC(=O)O)C(=O)c2cc(C#CCCCCNC(=N)N)ccc21 [Cmpd 42, 1-(methyl)-4-(2-carboxyethyl)-7-(6-guanidino-1-hexynyl)-3,4-dihydro-1H-1,4-benzodiazepine-2,5-dione trifluroacetate]
- IC50 [1, 4]: 0.06 µM
- IC50 [1, 5]: 0.009 µM
- IC50 [2]: > 10 µM
- IC50 [3, 6]: 2.66 µM

Structure (SMILES): CN1C(=O)CN(CCC(=O)O)C(=O)c2cc(C#CCCNC(=N)N)ccc21 [Cmpd 22]
- IC50 [1, 4]: 0.14 µM
- IC50 [1, 5]: 0.14 µM
- IC50 [2]: > 10 µM
- IC50 [3, 6]: 8.96 µM

Structure (SMILES): NCCCCCCc1ccc2c(c1)C(=O)N(CCC(=O)O)CC(=O)N2Cc1cccc(NC(=O)CCN)c1 [Cmpd 110, 1-[3-(3-aminopropionyl)aminophenyl]methyl-4-(2-carboxyethyl)-7-(6-aminohexyl)-3,4-dihydro-1H-1,4-benzodiazapine-2,5-dione bistrifluoroacetate]
- IC50 [1, 5]: 0.008 µM
- IC50 [1, 8]: 0.008 µM
- IC50 [2]: > 10 µM
- IC50 [3, 6]: 0.28 µM
- IC50 [3, 7]: 0.83 µM

Structure (SMILES): NCCCCCc1ccc2c(c1)C(=O)N(CCC(=O)O)CC(=O)N2C(c1ccccc1)c1ccccc1 [Cmpd 68, 1-(diphenylmethyl)-4-(2-carboxyethyl)-7-(5-aminopentyl)-3,4-dihydro-1H-1,4-benzodiazepine-2,5-dione trifluoroacetate]
- IC50 [1, 4]: 0.02 µM
- IC50 [1, 5]: 0.028 µM
- IC50 [2]: > 10 µM
- IC50 [3, 6]: 1.66 µM
- IC50 [3, 7]: 3.4 µM

Structure (SMILES): N=C(N)NCCCC#Cc1ccc2c(c1)C(=O)N(CCC(=O)O)CC(=O)N2C(c1ccccc1)c1ccccc1 [Cmpd 71]
- IC50 [1, 4]: 0.008 µM
- IC50 [1, 5]: 0.008 µM
- IC50 [2]: > 10 µM
- IC50 [3, 6]: 0.34 µM
- IC50 [3, 7]: 0.95 µM

Structure (SMILES): CN1C(=O)CN(CCC(=O)O)C(=O)c2cc(C#Cc3ccc(CNC(=N)N)cc3)ccc21 [Cmpd 44, 1-(methyl)-4-(2-carboxyethyl)-7-[4-(guanidinomethyl)phenyl]ethynyl-3,4-dihydro-1H-1,4-benzodiazepine-2,5-dione trifluroacetate]
- IC50 [1, 4]: 0.012 µM
- IC50 [1, 5]: 0.012 µM
- IC50 [2]: > 10 µM
- IC50 [3, 6]: 8.8 µM
- IC50 [3, 7]: 14.3 µM

Structure (SMILES): CN1C(=O)CN(CCC(=O)O)C(=O)c2cc(C#Cc3ccc(CN)cc3)ccc21 [Cmpd 43, 1-(methyl)-4-(2-carboxyethyl)-7-[4-(aminomethyl)phenyl]ethynyl-3,4-dihydro-1H-1,4-benzodiazepine-2,5-dione trifluroacetate]
- IC50 [1, 4]: 0.012 µM
- IC50 [1, 5]: 0.012 µM
- IC50 [2]: > 10 µM
- IC50 [3, 6]: 1.7 µM
- IC50 [3, 7]: 3.34 µM

Structure (SMILES): N=C(N)NCCCCCCc1ccc2c(c1)C(=O)N(CCC(=O)O)CC(=O)N2Cc1cccc(NC(=O)CNC(=N)N)c1 [Cmpd 109]
- IC50 [1, 5]: 0.017 µM
- IC50 [1, 8]: 0.017 µM
- IC50 [2]: > 10 µM
- IC50 [3, 6]: 1.19 µM

Structure (SMILES): N=C(N)NCCCCCCc1ccc2c(c1)C(=O)N(CCC(=O)O)CC(=O)N2Cc1cccc(NC(=O)CCCCNC(=N)N)c1 [Cmpd 115]
- IC50 [1, 5]: 0.018 µM
- IC50 [1, 8]: 0.013 µM
- IC50 [3, 6]: 0.92 µM

Structure (SMILES): NCCCCCc1ccc2c(c1)C(=O)N(CCC(=O)O)CC(=O)N2Cc1ccc2ccccc2c1 [Cmpd 76, 1-(2-napthyl)methyl-4-(2-carboxyethyl)-7-(5-aminopentyl)-3,4-dihydro-1H-1,4-benzodiazepine-2,5-dione trifluoroacetate]
- IC50 [1, 4]: 0.077 µM
- IC50 [1, 5]: 0.077 µM
- IC50 [3, 6]: 28.9 µM

Structure (SMILES): NCCCC#Cc1ccc2c(c1)C(=O)N(CCC(=O)O)CC(=O)N2Cc1cccc([N+](=O)[O-])c1 [Cmpd 35, 1-(3-nitrobenzyl)-4-(2-carboxyethyl)-7-(5-amino-1-pentynyl)-3,4-dihydro-1H-1,4-benzodiazepine-2,5-dione trifluroacetate]
- IC50 [1, 4]: 0.013 µM
- IC50 [1, 5]: 0.013 µM
- IC50 [2]: > 10 µM
- IC50 [3, 6]: 2.4 µM
- IC50 [3, 7]: 8 µM
- IC50 ([3]; heparin, read-out: PA IC50 (μM) (heparin)): 9.53 µM

Structure (SMILES): COc1ccc(CN2C(=O)CN(CCC(=O)O)C(=O)c3cc(CCCCCCN)ccc32)cc1 [Cmpd 81, 1-(p-methoxybenzyl)-4-(2-carboxyethyl)-7-(6-aminohexyl)-3,4-dihydro-1H-1,4-benzodiazepine-2,5-dione trifluoroacetate]
- IC50 [1, 4]: 0.023 µM
- IC50 [1, 5]: 0.023 µM
- IC50 [3, 6]: 0.98 µM

Structure (SMILES): N=C(N)NCCCCCCc1ccc2c(c1)C(=O)N(CCC(=O)O)CC(=O)N2Cc1cccc(NC(=O)CCNC(=N)N)c1 [Cmpd 111]
- IC50 [1, 5]: 0.01 µM
- IC50 [1, 8]: 0.01 µM
- IC50 [2]: > 10 µM
- IC50 [3, 6]: 1.14 µM
- IC50 [3, 7]: 1.49 µM
